Columns and labels:
[1] = system: Echinochloa crus-galli; assay: Paddy herbicidal activity test; format: in vivo; details: irrigated paddy pot, treated at 3.5 leaf stage of Echinochloa crus-galli, 30 days
Procedure, shortened: (§1)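 Flooded paddy-soil pots (3 cm water) sown with weeds; rice at 2.0 leaf stage transplanted when Echinochloa reached 3.5 leaf stage, then diluted wettable powder dropped into water at prescribed rate per are. After 30 days in greenhouse (mean 30° C), growth inhibition vs untreated (efficacy) or vs complete kill (phytotoxicity) scored on 11 levels.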

[2] = system: Monochoria vaginalis; assay: Paddy herbicidal activity test; format: in vivo; details: irrigated paddy pot, 30 days
Procedure, shortened: as §1

[3] = system: Scirpus juncoides; assay: Paddy herbicidal activity test; format: in vivo; details: irrigated paddy pot, 30 days
Procedure, shortened: as §1

[4] = system: Chenopodium album; assay: Weed foliar treatment test; format: in vivo; details: foliar spray, 3 weeks
Protocol: (§2) Evaluation of herbicidal efficacy was carried out by comparing growth inhibition rate (%) with an untreated group, while evaluation of phytotoxicity was carried out by comparing growth inhibition rate (%) with the state of a complete eradication group, and were evaluated at 11 levels indicated below. [table] Soil was filled into a 1/6000 are pot followed by seeding with Digitaria ciliaris, Chenopodium album and Amaranthus retroflexus, covering with soil, and cultivating in a glass greenhouse at an average atmospheric temperature of 25° C. Wettable powder of Target Compound (I) shown in Table 1 prepared in compliance with the preparation examples were diluted with water to the prescribed amount of chemical and uniformly sprayed onto the weeds using 15 liters of sprayed water per are when Digitaria ciliaris had grown to the 1.0 to 2.0 leaf stage. After treating for 3 weeks in a glass greenhouse at an average atmospheric temperature of 25° C., the herbicidal efficacy thereof was investigated, Evaluation of herbicidal efficacy was carried out in the same manner as the above-mentioned Test Example 1.

[5] = system: Amaranthus retroflexus; assay: Weed foliar treatment test; format: in vivo; details: foliar spray, 3 weeks
Protocol: as §2

[6] = system: Digitaria ciliaris; assay: Weed foliar treatment test; format: in vivo; details: foliar spray at 1.0 to 2.0 leaf stage of Digitaria ciliaris, 3 weeks
Protocol: as §2

[7] = system: Rice plants; assay: Paddy herbicidal activity test, phytotoxicity to transplanted rice; format: in vivo; details: rice transplanted at 2.0 leaf stage, 30 days
Procedure, shortened: as §1

[8] = system: Chenopodium album; assay: Farming soil treatment test; format: in vivo; details: soil surface spray prior to weed growth, 30 days
Protocol: (§3) Evaluation of herbicidal efficacy was carried out by comparing growth inhibition rate (%) with an untreated group, while evaluation of phytotoxicity was carried out by comparing growth inhibition rate (%) with the state of a complete eradication group, and were evaluated at 11 levels indicated below. [table] Field soil was filled into a 1/6000 are pot followed by seeding with Digitaria ciliaris, Chenopodium album and Amaranthus retroflexus and covering with soil. Wettable powder of compounds of formula (I) shown in Table 1 prepared in compliance with the preparation examples were diluted with water to the prescribed amount of chemical and uniformly sprayed onto each soil surface layer using 10 liters of sprayed water per are prior to weed growth following seeding. After treating for 30 days in a glass greenhouse at an average atmospheric temperature of 30° C., the herbicidal efficacy thereof was investigated. Evaluation of herbicidal efficacy was carried out in the same manner as the above-mentioned Test Example 1.

[9] = system: Amaranthus retroflexus; assay: Farming soil treatment test; format: in vivo; details: soil surface spray prior to weed growth, 30 days
Protocol: as §3

[10] = system: Digitaria ciliaris; assay: Farming soil treatment test; format: in vivo; details: soil surface spray prior to weed growth, 30 days
Protocol: as §3

| SMILES | herbicidal efficacy (growth inhibition rate level) Echinochloa crus-galli ([1]; 1g a.i./10a) | herbicidal efficacy (growth inhibition rate level) Echinochloa crus-galli ([1]; 5g a.i./10a) | herbicidal efficacy (growth inhibition rate level) Monochoria vaginalis ([2]; 1g a.i./10a) | herbicidal efficacy (growth inhibition rate level) Monochoria vaginalis ([2]; 5g a.i./10a) | herbicidal efficacy (growth inhibition rate level) Scirpus juncoides ([3]; 1g a.i./10a) | herbicidal efficacy (growth inhibition rate level) Scirpus juncoides ([3]; 5g a.i./10a) | herbicidal efficacy (growth inhibition rate level) Chenopodium album ([4]; 5g a.i./10a) | herbicidal efficacy (growth inhibition rate level) Chenopodium album ([4]; 10g a.i./10a) | herbicidal efficacy (growth inhibition rate level) Amaranthus retroflexus ([5]; 5g a.i./10a) | herbicidal efficacy (growth inhibition rate level) Amaranthus retroflexus ([5]; 10g a.i./10a) | herbicidal efficacy (growth inhibition rate level) Digitaria ciliaris ([6]; 5g a.i./10a) | herbicidal efficacy (growth inhibition rate level) Digitaria ciliaris ([6]; 10g a.i./10a) | phytotoxicity (growth inhibition rate level) Rice plants ([7]; 1g a.i./10a) | phytotoxicity (growth inhibition rate level) Rice plants ([7]; 5g a.i./10a) | herbicidal efficacy (growth inhibition rate level) Chenopodium album ([8]; 5g a.i./10a) | herbicidal efficacy (growth inhibition rate level) Chenopodium album ([8]; 10g a.i./10a) | herbicidal efficacy (growth inhibition rate level) Amaranthus retroflexus ([9]; 5g a.i./10a) | herbicidal efficacy (growth inhibition rate level) Amaranthus retroflexus ([9]; 10g a.i./10a) | herbicidal efficacy (growth inhibition rate level) Digitaria ciliaris ([10]; 5g a.i./10a) | herbicidal efficacy (growth inhibition rate level) Digitaria ciliaris ([10]; 10g a.i./10a) | further results |
| --- | --- | --- | --- | --- | --- | --- | --- | --- | --- | --- | --- | --- | --- | --- | --- | --- | --- | --- | --- | --- | --- |
| N#Cc1cnn(-c2nn3c(c2Cl)CCCC3)c1NC(C1CC1)C1CC1 [Compound 10, 1-(3-chloro-4,5,6,7-tetrahydropyrazolo[1,5-a]pyridin-2-yl)-5-(dicyclopropylmethylamino)pyrazole-4-carbonitrile] | 9 (9: 90% to less than 100%) | 9 (9: 90% to less than 100%) | 8 (8: 80% to less than 90%) | 9 (9: 90% to less than 100%) | 8 (8: 80% to less than 90%) | 9 (9: 90% to less than 100%) | 10 (10: 100%) | 10 (10: 100%) | 10 (10: 100%) | 10 (10: 100%) | 10 (10: 100%) | 10 (10: 100%) | 0 (0 (exponent): 0% to less than 10% (growth inhibition rate)) | 1 (1: 10% to less than 20%) | 10 (10: 100%) | 10 (10: 100%) | 10 (10: 100%) | 10 (10: 100%) | 10 (10: 100%) | 10 (10: 100%) | melting point: 132 to 133 °C |
| N#Cc1cnn(-c2nn3c(c2Cl)CCCC3)c1NCC1CC1(F)F (centres unmarked) [Compound 185] | 10 (10: 100%) | 10 (10: 100%) | 9 (9: 90% to less than 100%) | 9 (9: 90% to less than 100%) | 10 (10: 100%) | 10 (10: 100%) | 10 (10: 100%) | 10 (10: 100%) | 10 (10: 100%) | 10 (10: 100%) | 10 (10: 100%) | 10 (10: 100%) | 0 (0 (exponent): 0% to less than 10% (growth inhibition rate)) | 1 (1: 10% to less than 20%) | 10 (10: 100%) | 10 (10: 100%) | 10 (10: 100%) | 10 (10: 100%) | 10 (10: 100%) | 10 (10: 100%) |  |

From US9556183B2, “Substituted pyrazolylpyrazole derivative and use of same as herbicide” (KYOYU AGRI CO., LTD., priority 2013, dated 2017)
